Reference: ChEMBL document CHEMBL1201862, “PubChem BioAssay data set” (2004)
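1) Cells in 96-well plates. 2) Compound, 48 h, 5 concentrations. 3) Linear interpolation between surrounding doses. 4) Unreached endpoint = highest concentration. GI50 = concentration required for 50% inhibition of growth.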 Active and inactive are the calls of the source. Rule as the data show it: active = GI50 up to about 1.1 µM and inactive = higher.

How the values were obtained:
Test in all cases: NCI tumour cell line growth inhibition, 48 h
M14 = test system: M14
MDA-MB-435 = test system: MDA-MB-435
UO-31 = test system: UO-31
SN12C = test system: SN12C
OVCAR-4 = test system: OVCAR-4
RXF 393 = test system: RXF 393
IGROV-1 = test system: IGROV-1
SK-OV-3 = test system: SK-OV-3
786-0 = test system: 786-0
OVCAR-8 = test system: OVCAR-8
HCT-15 = test system: HCT-15
Malme-3M = test system: Malme-3M
HT-29 = test system: HT-29
U-251 = test system: U-251
TK-10 = test system: TK-10
OVCAR-3 = test system: OVCAR-3
CCRF-CEM = test system: CCRF-CEM
MDA-MB-231 = test system: MDA-MB-231
A498 = test system: A498

| Structure (SMILES) | GI50 (M14) | GI50 (MDA-MB-435) | GI50 (UO-31) | GI50 (SN12C) | GI50 (OVCAR-4) | GI50 (RXF 393) | GI50 (IGROV-1) | GI50 (SK-OV-3) | GI50 (786-0) | GI50 (OVCAR-8) | GI50 (HCT-15) | GI50 (Malme-3M) | GI50 (HT-29) | GI50 (U-251) | GI50 (TK-10) | GI50 (OVCAR-3) | GI50 (CCRF-CEM) | GI50 (MDA-MB-231) | GI50 (A498) |
| --- | --- | --- | --- | --- | --- | --- | --- | --- | --- | --- | --- | --- | --- | --- | --- | --- | --- | --- | --- |
| CCCCC1Cc2cc(O)ccc2-c2nc3cc(O)ccc3n21.CCCCC1Cc2cc(O)ccc2-c2nc3ccc(O)cc3n21 (stereo unspecified) | 15.3 µM (inactive) | 11.9 µM (inactive) | 13.1 µM (inactive) | 16.5 µM (inactive) | 7.45 µM (inactive) | 19.1 µM (inactive) | 13 µM (inactive) | 18.5 µM (inactive) | 19 µM (inactive) | 21.4 µM (inactive) | 11 µM | 21.8 µM (inactive) | 16.3 µM (inactive) | 14.4 µM (inactive) | 18.6 µM (inactive) | 21.7 µM (inactive) | 19.2 µM (inactive) | 13.6 µM (inactive) |  |
| N#Cc1nc(/C=C/c2cccs2)oc1N | 97.5 µM (inactive) | > 100 µM (inactive) | 10.4 µM (inactive) | > 100 µM (inactive) |  | > 100 µM (inactive) | 65.9 µM (inactive) | > 100 µM (inactive) | > 100 µM (inactive) | > 100 µM (inactive) | 94.4 µM |  | > 100 µM (inactive) | 95.3 µM (inactive) | 61.4 µM (inactive) |  | 25.4 µM (inactive) | > 100 µM (inactive) | > 100 µM (inactive) |
| CCOC(=O)C1(C(=O)OCC)[C@H](c2ccccc2)C2=NO[C@@H]3CCC[C@H]1[C@H]23 | 36 µM (inactive) | 21.4 µM (inactive) | 57.4 µM (inactive) | > 100 µM (inactive) | 37.9 µM (inactive) | 52.1 µM (inactive) | 56.8 µM (inactive) | 30.1 µM (inactive) | 82.2 µM (inactive) | 75.3 µM (inactive) | 43.6 µM | > 100 µM (inactive) | 35.8 µM (inactive) | 49.9 µM (inactive) | 63.2 µM (inactive) | 25.1 µM (inactive) | 35.2 µM (inactive) | 75.7 µM (inactive) |  |
| COc1ccccc1NCC(=O)Nn1c(C)nc2ccc(S(=O)(=O)Nc3ccccc3OC)cc2c1=O | > 100 µM (inactive) | 26.7 µM (inactive) | > 100 µM (inactive) | > 100 µM (inactive) | > 100 µM (inactive) |  | 42.7 µM (inactive) | > 100 µM (inactive) | > 100 µM (inactive) | > 100 µM (inactive) | 56.1 µM | 97.7 µM (inactive) | 43.8 µM (inactive) | > 100 µM (inactive) | > 100 µM (inactive) | 83.4 µM (inactive) | 53.5 µM (inactive) | > 100 µM (inactive) |  |
| O=C1NC(=O)C(CCC(=O)c2cccc3ccccc23)C(=O)N1 | > 100 µM (inactive) | > 100 µM (inactive) | > 100 µM (inactive) | > 100 µM (inactive) | > 100 µM (inactive) | > 100 µM (inactive) |  | > 100 µM (inactive) | > 100 µM (inactive) | > 100 µM (inactive) | > 100 µM |  | > 100 µM (inactive) | > 100 µM (inactive) |  | > 100 µM (inactive) | > 10 µM (inactive) | > 100 µM (inactive) | > 100 µM (inactive) |
| COC(=O)/C1=C/c2c([nH]c3ccccc23)/C(C(=O)OC)=C\c2c1[nH]c1ccccc21 [CAULERPIN] | 25.2 µM (inactive) | 14.7 µM (inactive) | 7.6 µM (inactive) | 34.4 µM (inactive) |  | 12.7 µM (inactive) | 7.53 µM (inactive) | > 50 µM (inactive) | 11.2 µM (inactive) | 26.6 µM (inactive) | 22 µM | 12.9 µM (inactive) |  | 19.5 µM (inactive) | 32.6 µM (inactive) | 24.8 µM (inactive) |  | 13.7 µM (inactive) | 39.2 µM (inactive) |
